Reference: PMC7139656, “The Landscape of the Anti-Kinase Activity of the IDH1 Inhibitors” (Cancers, 2020)

Key:
[1] = test system: mutant IDH1 (2-HG production) in K562 cells; experiment: Mutant IDH1 activity - D-2-hydroxyglutarate production in K562 cells; type: cell-based, human; conditions: 24-h incubation; for D-2-HG level after treatment (decrease to): 30 μM
Description: The K562 and U-251 cells were seeded in 3-cm Petri dishes (Nunc) at a density of 0.5 × 10^6 cells/well and incubated at 37 °C for 24 h. […] After a 24-h treatment, the assays were performed using a D-2-Hydroxyglutarate Assay Kit (Abcam) according to the manufacturer’s instructions. Briefly, 25 μL of each cell lysate was transferred onto 96-well plates. Internal and external standards (containing 1 mM D2HG) were also prepared. Then, a freshly prepared reaction mix containing D2HG Assay Buffer, D2HG Enzyme and D2HG Substrate Mix was added to each well. Reaction mixes with the cell lysates were incubated for 60 min at 37 °C in the dark. The optical densities of the samples were analyzed at 450 nm using a Synergy 4 multi-plate reader. The experiments were performed at least four times. The D-2-Hydroxyglutarate concentration is expressed as nM/μL.

[2] = test system: ABL1 recombinant protein; design: method as in PMID 19679652; conditions: cited from earlier work
[3] = test system: IDH1 R132H; conditions: cited from earlier work
[4] = test system: MCF-7; experiment: Cytotoxicity / antiproliferative activity, MTS test; type: cell-based; conditions: Homo sapiens, MCF7, 72-h incubation
Description: (§1) M. Rusin from the Maria Sklodowska-Curie Memorial Cancer Centre and Institute of Oncology in Gliwice, Poland. […] G. Kramer-Marek from The Institute of Cancer Research in London, United Kingdom. The pancreatic cell line PANC-1 and the human chronic myelogenous leukemia cell line K562 were purchased from Sigma-Aldrich. […] All of these cell lines were grown under standard conditions at 37 °C in a 5% CO2 humidified atmosphere. Prior to beginning the experiments, all of the cell lines were subjected to routine mycoplasma testing with specific Mycoplasma primers using the PCR technique.
(§2) The exponentially growing cells for all of the cell lines were seeded in 96-well plates (Nunc) at a density of 5000 cells/well and incubated at 37 °C for 24 h. The assay was performed following a 72-h incubation with the various concentrations of the compounds that were being tested. Then, 20 µL of CellTiter 96®AQueous One Solution-MTS (Promega) solution was added to each well (with 100 µL DMEM without phenol red) and incubated for 1 h at 37 °C. The optical densities of the samples were analyzed at 490 nm using a multi-plate reader (Synergy 4, BioTek). The results are expressed as the percentage of the control and were calculated as the inhibitory concentration (IC50) values using GraphPad Prism 7. Each individual compound was tested in triplicate in a single experiment with each experiment being repeated five times.

[5] = test system: U-251; experiment: as above; type: cell-based; conditions: Homo sapiens, 72-h incubation
Description: as §1, §2

[6] = test system: HCT 116 p53-/-; experiment: as above; type: cell-based; conditions: Homo sapiens, 72-h incubation
Description: as §1, §2

[7] = test system: HCT 116 p53+/+; experiment: as above; type: cell-based; conditions: Homo sapiens, 72-h incubation
Description: as §1, §2

[8] = test system: K562; experiment: as above; type: cell-based; conditions: Homo sapiens, 72-h incubation
Description: as §1, §2

[9] = test system: PANC-1; experiment: as above; type: cell-based; conditions: Homo sapiens, 72-h incubation
Description: as §1, §2

[10] = target: T1, Lyn B (Homo sapiens, UniProt P07948); experiment: Tyrosine kinase inhibition in vitro (TK-2 panel, ADP-Glo); type: biochemical; conditions: for inhibition at 0.5 µM: compound at 0.5 μM, read-out: Inhibitory Effect of the Non-Receptor Tyrosine Kinase Activity, Lyn B
T1 construct: purchased Promega

[11] = target: T2, ABL1 native (Homo sapiens, UniProt P00519); experiment: Tyrosine kinase inhibition in vitro (Kinase Selectivity TK-2 Profiling System, ADP-Glo); type: biochemical; conditions: for inhibition at 0.5 µM: compound at 0.5 μM, read-out: Inhibitory Effect of the Non-Receptor Tyrosine Kinase Activity, ABL1 native
T2 construct: purchased Promega
Description: (§3) The inhibition of the tyrosine kinases by the tested compounds was measured using the Kinase Selectivity TK-2 Profiling Systems (Promega) as was previously reported. Briefly, the kinases (ABL1; BRK; BTK; CSK; Fyn A; Lck; Lyn B; Src) and substrate/co factor strips were prepared according to the manufacturer’s instructions. The compounds being tested were dissolved in DMSO to a concentration of 100 μM, which was then used as the stock solution to prepare the 0.5 μM final concentration in a 1x Kinase Reaction Buffer (40 mM Tris – pH 7.5; 20 mM MgCl2; 0.1 mg/mL BSA; 50 μM DTT). The experiment began with transferring 1 μl of the prepared solutions of the tested compounds onto a 384-well white plate that was designed for luminescence (Corning). Then, 2 μL of the kinases from the eight-well strip were added into each well and the plate was incubated for 10 min at room temperature (RT), after which 2 μL of the substrates from the eight-well substrate/co-factor strip were added to each well and the plate was left at RT for 1 h. Solutions of 1x Kinase Reaction Buffer with 5% vehicle (DMSO) were used as the negative controls without an inhibitor or enzymes. The activity of each kinase was determined using an ADP-Glo Kinase Assay (Promega). Firstly, in order to stop the reaction, 5 μL of ADP-Glo reagent was added to each well and the plate was incubated for 40 min at RT. Afterwards, 10 μL of the Kinase Detection Reagent was added to each well and the luminescence was measured in a Synergy 4 multi-plate reader following a 30-min incubation at RT. […] The data are expressed as the percentage of the inhibition of tyrosine kinase after treatment with the tested compounds.

[12] = target: T3, Lck (Homo sapiens, UniProt P06239); experiment: Tyrosine kinase inhibition in vitro (TK-2 panel, ADP-Glo); type: biochemical; conditions: compound at 0.5 μM; read-out: Inhibitory Effect of the Non-Receptor Tyrosine Kinase Activity, Lck
T3 construct: purchased Promega
Description: as §3

[13] = target: T4, BRK (Homo sapiens, UniProt Q13882); experiment: as above; type: biochemical; conditions: compound at 0.5 μM; read-out: Inhibitory Effect of the Non-Receptor Tyrosine Kinase Activity, BRK
T4 construct: purchased Promega
Description: as §3

[14] = target: T5, BTK (Homo sapiens, UniProt Q06187); experiment: as above; type: biochemical; conditions: for inhibition at 0.5 µM: compound at 0.5 μM, read-out: Inhibitory Effect of the Non-Receptor Tyrosine Kinase Activity, BTK
T5 construct: purchased Promega
Description: as §3

[15] = target: T6, Src (Homo sapiens, UniProt P12931); experiment: as above; type: biochemical; conditions: compound at 0.5 μM; read-out: Inhibitory Effect of the Non-Receptor Tyrosine Kinase Activity, Src
T6 construct: purchased Promega
Description: as §3

[16] = target: T7, Fyn A (Homo sapiens, UniProt P06241); experiment: as above; type: biochemical; conditions: for inhibition at 0.5 µM: compound at 0.5 μM, read-out: Inhibitory Effect of the Non-Receptor Tyrosine Kinase Activity, Fyn A
T7 construct: purchased Promega
Description: as §3

[17] = target: T8, CSK (Homo sapiens, UniProt P41240); experiment: as above; type: biochemical; conditions: compound at 0.5 μM; read-out: Inhibitory Effect of the Non-Receptor Tyrosine Kinase Activity, CSK
T8 construct: purchased Promega
Description: as §3

[18] = target: ABL1 enzyme (Homo sapiens, UniProt P00519); experiment: Pharmacological synergy on the ABL enzyme model (TOS inhibitors and axitinib, ABL1 Kinase Assay, Chou-Talalay); conditions: for Combination index [CI]: combination with axitinib, for Fa = 0.9, CI < 1 synergy, CompuSyn
Description: The experiments were performed at least three times. The synergy was calculated according to the Chou-Talay method (CompuSyn software) [33, 70]. Briefly, the concentration range was adjusted to cover the specified IC50 value against the ABL1 enzyme for each inhibitor.

[19] = target: T9, ABL1 T315I (Homo sapiens, UniProt P00519, T315I); experiment: ABL (T315I) Kinase Assay (ADP-Glo); type: biochemical; conditions: for inhibition at 0.5 µM: compound at 0.5 μM, read-out: Inhibitory Effect of the Non-Receptor Tyrosine Kinase Activity, ABL1 T315I
T9 construct: purchased Promega
Description: as §3
Briefly, the solutions of the compounds being tested at various concentrations were prepared in a 1x Kinase Reaction Buffer. Firstly, 1 μl of the solutions of the tested compounds or vehicle – 5% DMSO (as the control without an inhibitor) were added onto a 384-well low volume white plate. […] After 10 min of incubation at RT, 2 μL of the substrate/ATP mixture was added to each well and incubated for 1h at RT. The luminescence of the kinase activity after treatment with the tested compounds was measured using an ADP-Glo Kinase Assay as was described above. The experiments were performed three times and the results are presented as the IC50 values, which were calculated using GraphPad Prism 7.

[20] = test system: wild-type IDH1; conditions: cited from earlier work

T7 sequence (P06241 whole entry): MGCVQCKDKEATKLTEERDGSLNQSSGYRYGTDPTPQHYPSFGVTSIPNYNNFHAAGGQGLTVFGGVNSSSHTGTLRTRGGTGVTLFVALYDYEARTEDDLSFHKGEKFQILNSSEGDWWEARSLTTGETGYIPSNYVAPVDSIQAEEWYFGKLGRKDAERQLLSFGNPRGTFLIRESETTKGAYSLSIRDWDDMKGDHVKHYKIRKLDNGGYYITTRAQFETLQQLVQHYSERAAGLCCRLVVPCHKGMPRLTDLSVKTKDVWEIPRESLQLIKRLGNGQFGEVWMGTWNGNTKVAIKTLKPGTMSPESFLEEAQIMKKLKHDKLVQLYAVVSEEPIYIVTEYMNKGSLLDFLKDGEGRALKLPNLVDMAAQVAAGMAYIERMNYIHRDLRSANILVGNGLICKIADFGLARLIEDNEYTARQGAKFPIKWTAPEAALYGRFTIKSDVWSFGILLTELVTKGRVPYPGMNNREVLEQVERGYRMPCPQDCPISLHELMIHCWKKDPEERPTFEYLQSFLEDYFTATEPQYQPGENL
T5 sequence (Q06187 whole entry): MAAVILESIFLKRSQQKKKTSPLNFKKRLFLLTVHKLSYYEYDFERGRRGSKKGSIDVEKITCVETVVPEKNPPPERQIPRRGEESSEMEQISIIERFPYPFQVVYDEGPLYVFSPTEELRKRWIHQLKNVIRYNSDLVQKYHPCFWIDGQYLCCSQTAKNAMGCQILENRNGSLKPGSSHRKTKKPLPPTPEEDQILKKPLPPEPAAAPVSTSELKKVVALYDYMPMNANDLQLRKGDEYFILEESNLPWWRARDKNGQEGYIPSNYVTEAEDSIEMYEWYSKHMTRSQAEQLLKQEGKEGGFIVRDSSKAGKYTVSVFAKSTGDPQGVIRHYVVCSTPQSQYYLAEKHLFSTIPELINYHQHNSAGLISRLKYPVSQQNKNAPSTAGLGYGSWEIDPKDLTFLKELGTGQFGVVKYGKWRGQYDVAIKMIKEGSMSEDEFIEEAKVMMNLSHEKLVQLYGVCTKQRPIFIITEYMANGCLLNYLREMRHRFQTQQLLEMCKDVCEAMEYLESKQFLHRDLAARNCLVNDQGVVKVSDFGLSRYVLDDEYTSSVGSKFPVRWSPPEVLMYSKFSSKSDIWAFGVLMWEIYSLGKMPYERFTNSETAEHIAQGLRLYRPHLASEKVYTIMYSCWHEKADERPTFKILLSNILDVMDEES
T1 sequence (P07948 1-491 isoform P07948-2): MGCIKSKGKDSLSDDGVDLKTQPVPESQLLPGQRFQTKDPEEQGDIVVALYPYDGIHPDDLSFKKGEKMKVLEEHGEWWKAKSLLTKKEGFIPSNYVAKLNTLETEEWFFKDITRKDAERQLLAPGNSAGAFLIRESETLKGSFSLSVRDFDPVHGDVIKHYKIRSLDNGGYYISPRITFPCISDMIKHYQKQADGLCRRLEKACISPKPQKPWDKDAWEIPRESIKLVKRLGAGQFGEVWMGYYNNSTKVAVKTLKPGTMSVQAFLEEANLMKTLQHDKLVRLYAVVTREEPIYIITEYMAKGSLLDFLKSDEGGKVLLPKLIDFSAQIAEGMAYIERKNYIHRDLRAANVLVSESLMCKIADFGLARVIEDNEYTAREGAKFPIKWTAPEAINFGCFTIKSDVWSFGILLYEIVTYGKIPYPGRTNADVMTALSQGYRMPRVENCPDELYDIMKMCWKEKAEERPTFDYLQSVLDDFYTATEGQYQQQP
T8 sequence (P41240 whole entry): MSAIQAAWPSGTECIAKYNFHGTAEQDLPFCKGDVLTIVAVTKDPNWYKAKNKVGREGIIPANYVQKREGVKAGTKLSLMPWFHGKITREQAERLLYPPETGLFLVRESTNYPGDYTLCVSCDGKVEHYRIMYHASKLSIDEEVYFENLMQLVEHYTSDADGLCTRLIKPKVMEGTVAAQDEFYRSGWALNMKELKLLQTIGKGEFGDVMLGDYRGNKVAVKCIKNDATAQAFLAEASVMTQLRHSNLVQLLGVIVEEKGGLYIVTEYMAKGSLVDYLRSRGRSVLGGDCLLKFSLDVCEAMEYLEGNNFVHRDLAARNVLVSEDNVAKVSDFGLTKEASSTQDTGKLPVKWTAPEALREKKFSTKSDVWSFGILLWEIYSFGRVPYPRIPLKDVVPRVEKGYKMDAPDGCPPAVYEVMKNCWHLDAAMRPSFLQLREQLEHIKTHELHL
T6 sequence (P12931 whole entry): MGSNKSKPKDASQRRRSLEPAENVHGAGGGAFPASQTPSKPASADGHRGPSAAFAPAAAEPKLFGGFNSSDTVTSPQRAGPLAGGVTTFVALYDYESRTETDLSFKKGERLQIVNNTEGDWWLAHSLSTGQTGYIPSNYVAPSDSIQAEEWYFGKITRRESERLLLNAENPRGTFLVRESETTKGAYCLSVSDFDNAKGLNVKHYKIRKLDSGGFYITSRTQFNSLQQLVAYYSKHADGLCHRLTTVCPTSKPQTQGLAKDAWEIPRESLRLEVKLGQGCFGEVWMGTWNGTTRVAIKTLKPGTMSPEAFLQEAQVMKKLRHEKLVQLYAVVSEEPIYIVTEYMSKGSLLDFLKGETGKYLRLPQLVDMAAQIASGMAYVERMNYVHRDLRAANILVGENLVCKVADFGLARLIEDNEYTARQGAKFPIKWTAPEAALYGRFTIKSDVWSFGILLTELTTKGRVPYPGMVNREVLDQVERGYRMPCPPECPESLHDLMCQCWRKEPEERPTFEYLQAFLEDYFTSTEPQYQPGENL
T4 sequence (Q13882 whole entry): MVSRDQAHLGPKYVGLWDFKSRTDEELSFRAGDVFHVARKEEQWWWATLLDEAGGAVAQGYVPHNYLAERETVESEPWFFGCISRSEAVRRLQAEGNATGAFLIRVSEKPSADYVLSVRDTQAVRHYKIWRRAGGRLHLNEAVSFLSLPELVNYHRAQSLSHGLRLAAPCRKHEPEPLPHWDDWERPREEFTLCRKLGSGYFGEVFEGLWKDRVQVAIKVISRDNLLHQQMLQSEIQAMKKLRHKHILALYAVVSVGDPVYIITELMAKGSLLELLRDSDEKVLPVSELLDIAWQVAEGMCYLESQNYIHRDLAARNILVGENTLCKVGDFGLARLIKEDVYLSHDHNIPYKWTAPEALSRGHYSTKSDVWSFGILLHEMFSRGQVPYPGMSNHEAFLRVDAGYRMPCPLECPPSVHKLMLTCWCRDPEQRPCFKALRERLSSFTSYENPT
T3 sequence (P06239 whole entry): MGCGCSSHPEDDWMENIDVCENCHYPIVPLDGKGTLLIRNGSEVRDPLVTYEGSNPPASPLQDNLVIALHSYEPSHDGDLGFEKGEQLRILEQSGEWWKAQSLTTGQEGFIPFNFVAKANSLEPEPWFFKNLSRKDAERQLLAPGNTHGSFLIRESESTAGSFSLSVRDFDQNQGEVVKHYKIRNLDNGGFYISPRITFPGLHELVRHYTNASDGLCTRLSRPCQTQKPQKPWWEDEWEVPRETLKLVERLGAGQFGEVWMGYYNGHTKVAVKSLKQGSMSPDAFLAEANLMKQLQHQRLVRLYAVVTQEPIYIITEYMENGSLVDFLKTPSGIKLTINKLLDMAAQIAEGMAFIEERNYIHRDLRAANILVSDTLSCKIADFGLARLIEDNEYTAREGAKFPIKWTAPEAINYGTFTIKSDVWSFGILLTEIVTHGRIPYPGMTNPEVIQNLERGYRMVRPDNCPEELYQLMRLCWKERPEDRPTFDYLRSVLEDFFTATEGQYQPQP

| SMILES | IC50 [4] [µM] | IC50 [5] [µM] | IC50 [6] [µM] | IC50 [7] [µM] | IC50 [8] [µM] | IC50 [9] [µM] | D-2-HG level after treatment (decrease to) [1] [%] | IC50 [10] [µM] | inhibition at 0.5 µM [10] [%] | IC50 [11] [nM] | inhibition at 0.5 µM [11] [%] | inhibition at 0.5 µM [12] [%] | inhibition at 0.5 µM [13] [%] | IC50 [14] [nM] | inhibition at 0.5 µM [14] [%] | inhibition at 0.5 µM [15] [%] | inhibition at 0.5 µM [16] [%] | inhibition at 0.5 µM [17] [%] | Combination index [CI] [18] | IC50 [19] [µM] | other results |
| --- | --- | --- | --- | --- | --- | --- | --- | --- | --- | --- | --- | --- | --- | --- | --- | --- | --- | --- | --- | --- | --- |
| CNC(=O)c1ccccc1Sc1ccc2c(/C=C/c3ccccn3)n[nH]c2c1 [Axitinib, axitinib, reference compound] |  |  |  |  |  |  |  |  |  |  |  |  |  |  |  |  |  |  |  |  | reduced level of 2-hydroxyglutarate ([1]; axitinib 0.5 μM): 46% |
| NC(=O)c1cccc(-c2cc(Nc3ccc(OC(F)(F)F)cc3)ncn2)c1 [GNF-2] |  |  |  |  |  |  |  |  |  |  |  |  |  |  |  |  |  |  |  |  | level of activity towards recombinant ABL1 protein [2]: ~ 1 μM |
| C[C@H](O)c1cccc(NC(=O)c2nn(Cc3ccc(F)cc3)c3c2CN(C(=O)c2ccc[nH]2)C[C@H]3C)c1 [GSK-321] |  |  |  |  |  |  |  |  |  |  |  |  |  |  |  |  |  |  |  |  | inhibitory activity against IDH1 R132H in biochemical tests [3]: 4.6 nM |
| CCCCc1ccc(NS(=O)(=O)c2ccc(C)c(C(=O)N3CCN(c4ccccc4O)CC3)c2)cc1 [TOS-1, N-(4-butylphenyl)-3-[4-(2-hydroxyphenyl)piperazine-1-carbonyl]-4-methylbenzene-1-sulfonamide] | 18.1 ± 1 | 27.59 ± 0.17 | 27.83 ± 0.17 | 24.7 ± 0.32 | 12.7 ± 3.2 | 25.2 ± 3.38 | 24 | 5 | 0 | 934 | 42.8 ± 8.46 | 34.7 ± 2.51 | 22.6 ± 0.94 | 4940 | 32.3 ± 7.43 | 0 | 29.9 ± 4.29 | 38.4 ± 6.15 | 0.5 | 5.02 | IC50 [16]: 4.15 µM; Fa (fraction affected), combination with axitinib ([18]; TOS-1 0.375 µM + axitinib 0.125 µM): 0.3787; Fa (fraction affected), combination with axitinib ([18]; TOS-1 0.625 µM + axitinib 0.25 µM): 0.4837; Fa (fraction affected), combination with axitinib ([18]; TOS-1 1.25 µM + axitinib 0.5 µM): 0.7204; Fa (fraction affected), combination with axitinib ([18]; TOS-1 2.5 µM + axitinib 1 µM): 0.8412; Fa (fraction affected), single agent ([18]; dose 0.375 µM): 0.1126; Fa (fraction affected), single agent ([18]; dose 0.625 µM): 0.4149; Fa (fraction affected), single agent ([18]; dose 1.25 µM): 0.559; Fa (fraction affected), single agent ([18]; dose 2.5 µM): 0.5863; inhibition at 0.5 µM [19]: 29.3 ± 7.43% |
| CCCCc1ccc(NS(=O)(=O)c2ccc(C)c(C(=O)N3CCN(c4ccccc4OCCF)CC3)c2)cc1 [TOS-2, N-(4-butylphenyl)-3-{4-[2-(2-fluoroethoxy)phenyl]piperazine-1-carbonyl}-4-methylbenzene-1-sulfonamide] | 15.6 ± 1.35 | > 30 | 28.9 ± 1.07 | 24.4 ± 0.82 | 17.3 ± 2.23 | 18.9 ± 0.42 | 48 | 5 | 0 | 401 | 59.2 ± 8.12 | 0 | 0 | 522 | 50.9 ± 1.87 | 13.8 ± 4.23 | 19.6 ± 2.78 | 9.66 ± 3.59 | 0.75 | > 10 | Fa (fraction affected), combination with axitinib ([18]; TOS-2 0.0625 µM + axitinib 0.0625 µM): 0.354; Fa (fraction affected), combination with axitinib ([18]; TOS-2 0.125 µM + axitinib 0.125 µM): 0.4632; Fa (fraction affected), combination with axitinib ([18]; TOS-2 0.25 µM + axitinib 0.25 µM): 0.6215; Fa (fraction affected), combination with axitinib ([18]; TOS-2 0.5 µM + axitinib 0.5 µM): 0.6852; Fa (fraction affected), combination with axitinib ([18]; TOS-2 1 µM + axitinib 1 µM): 0.8101; Fa (fraction affected), single agent ([18]; dose 0.0625 µM): 0.07245; Fa (fraction affected), single agent ([18]; dose 0.125 µM): 0.2475; Fa (fraction affected), single agent ([18]; dose 0.25 µM): 0.3737; Fa (fraction affected), single agent ([18]; dose 0.5 µM): 0.518; Fa (fraction affected), single agent ([18]; dose 1 µM): 0.638; inhibition at 0.5 µM [19]: 26.1 ± 6.61% |
| N#Cc1ccnc(N2C(=O)CC[C@H]2C(=O)N(c2cncc(F)c2)[C@H](C(=O)NC2CC(F)(F)C2)c2ccccc2Cl)c1 [ivosidenib] |  |  |  |  |  |  |  |  |  |  |  |  |  |  |  |  |  |  |  |  | IC50 ([3]; read-out: IC50 IDH1 mutant): 12 nM; IC50 [20]: 24 nM |
